Data on seven compounds can be found in US12728139B2, “Methods of preparing purified atomic quantum clusters” (NANOGAP SUB-NM-POWDER, S.A., priority 2018, dated 2026).

For one assay, the system named is A549 proliferating cells. As to the kind of experiment: STORM super-resolution imaging of chromatin organization. The assay is classed as cell-based, human. The following applies: Ag3-AQCs 55.61 ng/mL or AgNO3 5 μM, 30 min.
In another assay the test system is A549 Luc-C8 cells. As to the kind of experiment: Luminescent cell viability assay. The assay is classed as cell-based, human. As to conditions: 24 hours. As for the experimental part: Data represent mean±SD of 2 independent experiments with 3 replicas per experiment. Mann Whitney test ((*) p<0.01).
After that, treatments were removed and 20 μL of lysis buffer (Promega) added to wells and incubated for 30 minutes, shacking. Lysates were then transferred to 1.5 mL tubes and centrifuged for 15 minutes at high speed.

The test system of assay [1] is A549 orthotopic lung cancer. The experiment in a line: Orthotopic lung cancer model. The following applies: CDDP 4 mg/kg intravenously, up to 37 days.
Protocol: (a) Tumour growth measured in vivo by luminescence (IVIS® Spectrum).
A suspension of 1×10^6 non-small cell lung carcinoma luciferase expressing cells (A549 Luc-C8 Bioware® cell line) in PBS (50 μL) was injected through the intercostal space into the left lung of athymic nude mice. During this procedure, mice were anaesthetized using 4% isoflurane inhalation. To follow tumour growth, luciferin was injected into the intraperitoneal cavity at a dose of 150 mg/kg body weight approximately 5 minutes before imaging. Luciferase bioluminescence was imaged under vaporized isofluran anaesthesia using an IVIS® Living Image® System (Caliper Life Sciences, Hopkinton, MA, USA) that allowed monitoring of both the primary tumour growth and cancer cell dissemination in a semi quantitative fashion. After in vivo imaging for several days (up to 37 days), the mice were sacrificed, and protein extracts were obtained from different organs to quantify luciferase activity.
In a further assay the test system is A549 cells. The experiment in a line: Quantification of platinum bound to DNA (ICP-MS) in A549 cells. It is filed as cell-based, human. As to conditions: proliferating A549 cells, CDDP 50 μM. As for the experimental part: DNA-bound platinum was assessed as previously described in Comenge et al. PLoS One 2012, 7: e47562. Briefly, 5×10^5 A549, MCF7 or U87-luc cells were seeded in 60 mm diameter plates. […] After the treatment, the cells were washed twice with PBS, trypsinised and centrifuged. The supernatants were removed, and the cell pellets were stored at −20° C. overnight. […] After 24 hours, the animals were sacrificed, and the organs were removed. Small pieces (1-2 mm^3) of tumour (lung) and other organs (heart, liver, kidney, spleen, brain and bone marrow) were separated using a scalpel. From this point, the steps for DNA extraction are common to cells and tissue samples. After freezing overnight, cell or tissue pellets were suspended in 300 μL of lysis buffer (150 mM Tris pH 8; 100 mM EDTA pH 8; 100 mM NaCl; 0.5% SDS) and 10 μL of Proteinase K (20 μg/μL). […] The DNA concentration was determined using a NanoDrop 2000 spectrophotometer (Thermofisher, Spain). […] Finally, the amount of platinum was determined by mass spectrometry using an ICP-MS BRUCKER 820-MS with a low-flow glass Micromist nebulizer and a double-pass spray chamber with a Peltier cooling (3° C.) and quartz torch (Bruker Corp., Billerica, MA, USA).

For the next assay, the target named is T1, single nucleosomes (Homo sapiens, UniProt P62805+P68431+Q16778+Q7L7L0).
T1 construct: purchased New England Biolabs, Ipswich, USA
The experiment in a line: Single-nucleosome destabilization, gel shift assay. The following applies: etoposide 60 μM or doxorubicin 20 μM 4 hours; Ag3-AQCs 83 ng/mL 30 minutes. It is filed as biochemical.

Another assay has as its system octamer. As to conditions: 25° C., ITC and fluorescence; cited from earlier work.

Protocol for A549 proliferating cells: 1.5×10^4 A549 cells were plated on 8-well Lab-tek cover glass chamber (Nunc) and 24 hours later cells were synchronized in S phase by adding 0.8 mM hydroxyurea (H-8627, Sigma) to the culture medium. […] The medium was removed and replaced with complete medium containing EdU (20 μM) for 2 hours. Cells were then fixed and permeabilized with Methanol-Acetone (1:1) solution at 20° C. for 10 minutes and blocked (3% BSA+0.01% Triton X-100) for 1 hour at RT. Finally, cells were washed three times with PBS and stained with Alexa Fluor 647 following the instructions provided by the manufacturer (Click-iT® EdU Alexa Fluor®488 Imaging Kit, Thermo Fisher Scientific).
The chromatin was imaged using a commercial microscope system from Nikon Instruments (NSTORM). […]
STORM images were analysed and rendered as previously described in Bates et al. 2007. […]
Since the labelling density of the EdU was very high, all of the images were roughly normalized to the same number of localizations per μm^2 of the nucleus, by varying the number of frames used in the final reconstructed image. The percentage of non-zero pixels of the reconstructed images was then calculated in ImageJ, and the percentage of nuclear area covered by EdU also calculated. The density of chromatin per μm^2 was extracted by dividing the number of localizations (same for each recorded nucleus) over the chromatin-covered area.
Protocol for single nucleosomes: From each reaction, half of the sample was electrophoresed under non-denaturing conditions, and the gel was stained with ethidium bromide (left, upper panel) and silver (left, lower panel). The remaining portion of the sample was analysed to check that equal amounts of histones were loaded in all cases (right panel). The position of unbound DNA, assembled nucleosomes and histones are indicated. (b) Nucleosomes were incubated with etoposide or doxorubicin as in (a) or the indicated Ag3-AQC dilutions (initial concentration, AQCs 1:10=83 ng/mL). Samples were analysed by native polyacrylamide electrophoresis, and the gel was stained first with ethidium bromide (top) and subsequently with silver (bottom) to visualize histones. This image is representative of two independent experiments.
Single nucleosome preparations were obtained using the Epimark Nucleosome Assembly Kit (New England Biolabs, Ipswich, USA) following the dilution assembly protocol from the manufacturer.
For the gel shift assay, 5% non-denaturing polyacrylamide gels were prepared using TBE buffer. After a 1 hour preliminary run at 100 V, the reactions containing nucleosomes were mixed with DNA loading buffer, and the electrophoresis was performed at 100 V for 2 h. Gels were stained with ethidium bromide to visualize DNA, and the signal was captured using the Gel Doc XR system (Bio-Rad). […]

Turning to `O=[N+]([O-])[O-].[Ag+]` [AgNO3, Silver nitrate], the “Chromatin compaction (STORM images)” value in the assay on A549 proliferating cells was “did not affect chromatin compaction”.

Take `N.N.O=C([O-])C1(C(=O)[O-])CCC1.[Pt+2]` [CBDCA, Carboplatin]: in the assay on A549 Luc-C8 cells, the IC5 came to 0.25 µM, the IC25 was found to be 0.5 µM, the IC50 came to 1000 µM and the IC75 was determined as 2000 µM.

Consider `[NH2][Pt]([NH2])([Cl])[Cl]` [CDDP, Cisplatin], for which, in the assay with A549 Luc-C8 cells, the IC5 stood at 5 µM, the IC25 is 10 µM, the IC50 is 50 µM and the IC75 is 100 µM. Moreover, the “Tumour growth in vivo (bioluminescence)” value in assay [1] was “significantly reduced the growth of tumours”.

Turning to `COc1cccc2c1C(=O)c1c(O)c3c(c(O)c1C2=O)C[C@@](O)(C(=O)CO)C[C@@H]3O[C@H]1C[C@H](N)[C@H](O)[C@H](C)O1` [DOX, Doxorubicin], the “Increase of amount of CDDP bound to DNA on co-administration with CDDP” value with A549 cells was “did not increase CDDP binding to DNA”. For the same compound, the “Dissociation of single nucleosomes” value at single nucleosomes is given as “dissociated nucleosomes”.

Consider `CC[N+](C)(CC)CCC[n+]1c(-c2ccccc2)c2cc(N)ccc2c2ccc(N)cc21.[I-].[I-]` [IP, Propidium iodide], for which the “Formation constant of complex with octamer” value with octamer was 140000 M⁻¹.

In the assay on A549 Luc-C8 cells, `O=C1[O][Pt]2([NH][C@@H]3CCCC[C@H]3[NH]2)[O]C1=O` [OXA, Oxaliplatin] had an IC5 of 2.5 µM, a 25% effect concentration (IC25) of 12.5 µM, an IC50 of 50 µM and an IC75 of 200 µM.

As to `COc1cc([C@@H]2c3cc4c(cc3[C@@H](O[C@@H]3O[C@@H]5CO[C@@H](C)O[C@H]5[C@H](O)[C@H]3O)[C@H]3COC(=O)[C@H]23)OCO4)cc(OC)c1O` [etoposide], at single nucleosomes, the “Dissociation of single nucleosomes” value is “has no effect”.

For orientation: IC25 means the concentration needed for an effect of 25%. High values mean a need for much substance, low ones an effect from little substance. A word on the IC50: it is the concentration that inhibits the measured activity by half. The low end stands for higher potency, the high end for lower potency. The term IC75 denotes the point of the concentration-response curve where the effect stands at 75%. A high value points to weaker potency.
